Measurements: ChEMBL document CHEMBL4130489, “Triclosan-caffeic acid hybrids: Synthesis, leishmanicidal, trypanocidal and cytotoxic activities” (Eur J Med Chem, 2017)
Converted amounts (≈) assume the structure as drawn.

Tests used:
Trypanosoma cruzi [1] = experiment: Antitrypanosomal activity against Trypanosoma cruzi; format: functional, organism-based
Leishmania panamensis [2] = experiment: Antileishmanial activity against GFP-tagged Leishmania panamensis MHOM/CO/87/UA140 intracellular amastigotes infected in human U937 cells incubated for 72 hrs by flow cytometry; format: functional, organism-based; details: MHOM/CO/87/UA140, U-937, 72 h
[3] = Selectivity index, ratio of LC50 for cytotoxicity in human U937 cells to EC50 for antitrypanosomal activity against Trypanosoma cruzi Tulahuen intracellular amastigotes transfected with beta-galactosidase infected in human U937 cells; format: toxicity, cell-based
[4] = Cytotoxicity in human U937 cells assessed as reduction in cell viability incubated for 72 hrs by MTT assay; format: cell-based, U-937; details: read-out: LC50
[5] = Selectivity index, ratio of LC50 for cytotoxicity in human U937 cells to EC50 for antileishmanial activity against GFP-tagged Leishmania panamensis MHOM/CO/87/UA140 intracellular amastigotes infected in human U937 cells; format: toxicity, cell-based
Trypanosoma cruzi [6] = experiment: Antitrypanosomal activity against Trypanosoma cruzi Tulahuen intracellular amastigotes transfected with beta-galactosidase infected in human U937 cells incubated for 72 hrs by spectrophotometry; format: functional, organism-based; details: U-937, 72 h
Leishmania panamensis [7] = experiment: Antileishmanial activity against GFP-tagged Leishmania panamensis MHOM/CO/87/UA140 amastigotes infected in human U937 cells incubated for 72 hrs by flow cytometry; format: functional, organism-based; details: MHOM/CO/87/UA140, U-937, 72 h
[8] = Cytotoxicity in human U937 cells; format: cell-based, U-937; details: read-out: LC50 (the source's name)
Leishmania major = experiment: Antileishmanial activity against Leishmania major promastigotes; format: functional, organism-based
Leishmania panamensis [9] = experiment: Antileishmanial activity against Leishmania panamensis axenic amastigotes; format: functional, organism-based
Trypanosoma brucei = experiment: Antitrypanosomal activity against Trypanosoma brucei bloodstream forms; format: functional

Row | SMILES | EC50 (Leishmania panamensis [2]) [µM] | selectivity ratio [3] | CC50 at 72 h [4] [µM] | selectivity ratio [5] | EC50 (Trypanosoma cruzi [6]; read-out: EC50) [µM] | also measured
1 | O=C(/C=C/c1ccc(O)c(O)c1)O[C@@H]1[C@H](O)C[C@@](O)(C(=O)O)C[C@H]1OC(=O)/C=C/c1ccc(O)c(O)c1 |  |  |  |  |  | IC50 (Trypanosoma cruzi [1]): 286 µM
2 | COc1ccc(/C=C/C(=O)OCCCCCCCOc2cc(Cl)ccc2Oc2ccc(Cl)cc2Cl)cc1OC | 99 | > 12.3 | 337 | > 3.4 | 27.4 | 
3 | O=C(/C=C/c1ccc(O)c(O)c1)OCCCOc1cc(Cl)ccc1Oc1ccc(Cl)cc1Cl | 24.3 | > 7.48 | > 392 | > 16.1 | 52.4 | 
4 | O=C(/C=C/c1ccc(O)c(O)c1)OCCCCCCCCOc1cc(Cl)ccc1Oc1ccc(Cl)cc1Cl | 12.9 | 2.19 | 40.2 | 3.11 | 18.4 | 
5 | COc1ccc(CCC(=O)OCCCOc2cc(Cl)ccc2Oc2ccc(Cl)cc2Cl)cc1OC | 40.2 | 7.49 | 250 | 6.2 | 33.3 | 
6 | COc1ccc(/C=C/C(=O)c2ccc(OCCCCOc3cc(Cl)ccc3Oc3ccc(Cl)cc3Cl)cc2)cc1OC |  |  |  |  |  | EC50 (Leishmania panamensis [7]): 10.2 µg/mL (≈ 16.2 µM); CC50 [8]: > 200 µg/mL
7 | COc1ccc(/C=C/C(=O)OCCCOc2cc(Cl)ccc2Oc2ccc(Cl)cc2Cl)cc1OC | 38.1 | < 10 | > 372 | > 9.77 | > 37.2 | 
8 | COc1ccc(/C=C/C(=O)c2ccc(OCCCCCOc3cc(Cl)ccc3Oc3ccc(Cl)cc3Cl)cc2)cc1OC |  |  |  |  |  | EC50 (Leishmania panamensis [7]): 13.5 µg/mL (≈ 21 µM); CC50 [8]: > 200 µg/mL
9 | O=C(/C=C/c1ccc(O)c(O)c1)OCCCCCOc1cc(Cl)ccc1Oc1ccc(Cl)cc1Cl | 15.3 | 0.28 | 8.18 | 0.53 | 29.7 | 
10 | O=C(/C=C/c1ccc(O)c(O)c1)OCCCCCCCCCOc1cc(Cl)ccc1Oc1ccc(Cl)cc1Cl | 30.2 | 0.09 | 3.62 | 0.12 | 41.3 | 
11 | O=C(/C=C/c1ccc(O)c(O)c1)OCCCCOc1cc(Cl)ccc1Oc1ccc(Cl)cc1Cl | 3.82 | 1.46 | 12 | 3.16 | 8.25 | 
12 | COc1ccc(/C=C/C(=O)OCCCCOc2cc(Cl)ccc2Oc2ccc(Cl)cc2Cl)cc1OC | 53.2 | 1.72 | 73.4 | 1.38 | 42.8 | 
13 | O=C(/C=C/c1ccc(O)c(O)c1)OCCCCCCCOc1cc(Cl)ccc1Oc1ccc(Cl)cc1Cl | 11.7 | 2.29 | 20 | 1.72 | 8.69 | 
14 | O=C(/C=C/c1ccc(O)c(O)c1)OCCCCCCCCCCCCOc1cc(Cl)ccc1Oc1ccc(Cl)cc1Cl | 42.6 | 5.08 | 174 | 4.08 | 34.2 | 
15 | COc1ccc(/C=C/C(=O)OCCCCCCCCCOc2cc(Cl)ccc2Oc2ccc(Cl)cc2Cl)cc1OC | 48.5 | 3.24 | 107 | 2.21 | 33 | 
16 | COc1ccc(/C=C/C(=O)c2ccc(OCCCOc3cc(Cl)ccc3Oc3ccc(Cl)cc3Cl)cc2)cc1OC |  |  |  |  |  | EC50 (Leishmania panamensis [7]): 9.4 µg/mL (≈ 15.3 µM); CC50 [8]: > 200 µg/mL
17 | CC1(C)C2CCC1(C)[C@H](OC(=O)/C=C/c1ccc(O)c(O)c1)C2 (some centres not stated) |  |  |  |  |  | IC50 (Leishmania major): 48.8 µM
18 | CCCCCCCCOC(=O)/C=C/c1ccc(O)c(O)c1 |  |  |  |  |  | EC50 (Leishmania panamensis [9]): 0.67 µM
19 | CC(C)CCOC(=O)/C=C/c1ccc(O)c(O)c1 |  |  |  |  |  | MIC (Trypanosoma brucei): 0.31 µg/mL (≈ 1.24 µM)
20 | C[C@@H]1[C@H](O)[C@@H](C)/C=C/C=C/C=C/C=C/C=C/C=C/C=C/[C@H](O[C@@H]2O[C@H](C)[C@@H](O)[C@H](N)[C@@H]2O)C[C@@H]2O[C@](O)(C[C@@H](O)C[C@@H](O)[C@H](O)CC[C@@H](O)C[C@@H](O)CC(=O)O[C@H]1C)C[C@H](O)[C@H]2C(=O)O [AMPHOTERICIN B] |  |  |  | 842 |  | 
21 | O=C(Cn1ccnc1[N+](=O)[O-])NCc1ccccc1 [BENZNIDAZOLE] |  | 17 |  |  |  | EC50 (Trypanosoma cruzi [6]): 40.3 µM
22 | O=C(O)/C=C/c1ccc(O)c(O)c1 [CAFFEIC ACID] | 1100 | > 7.07 | 1110 | > 1 | 157 | 
23 | Oc1cc(Cl)ccc1Oc1ccc(Cl)cc1Cl [TRICLOSAN] |  | […] | […] | […] | 49 | 
